Test results as given in the METLIN SMRT retention time set (Domingo-Almenara et al. 2019).

Test: gradient 5% acetonitrile 3 min, to 50% in 2 min, to 85% in 15 min, held 3 min, 100 µL/min
Conditions: column: Zorbax Extend-C18 2.1 x 50 mm; eluents: water / acetonitrile, 0.1% formic acid
Outline: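 Each retention time is based on an adduct peak selected computationally and verified by manual inspection. Measurements used HPLC–quadrupole time-of-flight mass spectrometry in positive and negative ionization mode on mixtures of ~100 pure standards. Chromatography ran on a Zorbax Extend-C18 column (2.1 × 50 mm, 1.8 μm) at 100 μL/min with water and acetonitrile, each containing 0.1% formic acid, and dead and dwell volumes of 40 μL and 900 μL.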

| Structure (SMILES) | RP-LC retention time [s] |
| --- | --- |
| O=C1C(N2CCN(S(=O)(=O)c3ccccc3F)CC2)CCN1Cc1ccccn1 (centres undefined) | 571 |
| COc1cccc(-c2noc(Cn3nc(-c4ccc5c(c4)OCO5)ccc3=O)n2)c1 | 957 |
| CCOC(=O)c1nc(NCc2ccc(C)cc2)c2ccccc2n1 | 823 |
| O=S(=O)(c1ccccc1)N1CCC(c2noc(-c3ccc(Cl)cc3)n2)CC1 | 1170 |
| O=C(Cn1cccc1-c1nnc(C2CC2)o1)NCc1ccccc1Cl | 815 |
| CCc1ccccc1S(=O)(=O)N(C)CC1CCOCC1 | 902 |
| CC1CCN(C(=O)c2cn(-c3cc(-c4nc(C(C)(C)C)no4)ccn3)cn2)CC1 | 1060 |
| CCCc1ccc(S(=O)(=O)N2CCCC2c2nc(-c3cccc(F)c3)no2)cc1 (centres undefined) | 1270 |
| COc1ccc2c(c1)C1(CCN(S(=O)(=O)c3cccc(Cl)c3)C1)C(=O)N2 (centres undefined) | 866 |
| CC(C)CC(=O)NCCc1csc(-c2ccc(Cl)cc2)n1 | 881 |
| O=C(Cc1csc(-n2cccc2)n1)N1CCC(c2nc3ccccc3[nH]2)CC1 | 558 |
| Cc1ccccc1OCC(=O)N1CCN(c2nc(CN3CCCCC3)cs2)CC1 | 895 |
| O[C@@H]1CCCC[C@H]1N1CCC(c2ccccc2)CC1 | 661 |
| Cc1cccc(N2CCN(S(=O)(=O)c3ccc4c(c3)CCCC(=O)N4)CC2)c1C | 983 |
| COc1ccc(-c2noc(-c3ccc(N4CCC(N5CCCCC5)CC4)nc3)n2)cc1 | 738 |
| Cc1nc(-c2csc(S(=O)(=O)N3CCC(C(=O)NCc4ccc(F)cc4)CC3)c2)no1 | 981 |
| Cc1ccc(N(C)C(=O)C2CCN(S(=O)(=O)c3ccc4c(c3)NC(=O)CO4)CC2)cc1 | 780 |
| CS(=O)(=O)N1CCC(C(=O)Nc2ccccc2Cl)Oc2ccccc21 (centres undefined) | 935 |
| O=S(=O)(c1ccccc1F)N1CCc2nc(-c3ccccc3)ncc2C1 | 1010 |
| CCNC(=O)N1CCCC(Cn2c(C3CC3)nc3cccnc32)C1 (centres undefined) | 585 |

| Structure (SMILES) | RP-LC retention time [s] |
| --- | --- |
| O=C(Nc1cccc(-c2cn3cccnc3n2)c1)c1ccccc1F | 664 |
| O=S(=O)(NCCc1c[nH]c2ncccc12)c1ccc(Br)cc1 | 684 |
| O=C(Nc1nccs1)C1CCN(C(=O)C2CC(=O)N(c3ccccc3)C2)CC1 (centres undefined) | 658 |
| CC1OC(Oc2c(-c3cc(O)c(O)c(O)c3)oc3cc(O)cc(O)c3c2=O)C(O)C(O)C1O (centres undefined) | 651 |
| CN(C)C(=O)c1cc2c(s1)CCC(C(=O)NC1CCN(Cc3ccccc3)CC1)C2 (centres undefined) | 598 |
| NC(=O)c1cc(-c2ccc(F)cc2)nc2ccccc12 | 776 |
| CCCN(CC1CCOC1)C(=O)Nc1cc(C)ccc1OC (centres undefined) | 874 |
| Cc1ccc(S(=O)(=O)Nc2ccc(C3(C(=O)NCC4CCCO4)CC3)cc2)cc1 (centres undefined) | 824 |
| Cc1cc2nn(CC(=O)N3CCCC3)c(=O)n2c(Nc2ccc(C)c(F)c2)n1 | 922 |
| O=C(Nc1nc(-c2ccncc2)cs1)C1CCCCC1 | 588 |
| COc1cccc(S(=O)(=O)Nc2ccc3c(c2)CCC(=O)N3CC(C)C)c1 | 868 |
| Cc1cnc(C(=O)N2CCC(n3c(C)cnc3C3CCC3)C2)cn1 (centres undefined) | 560 |
| O=C(c1ccc2ccnc(N3CCN(c4ccccc4)CC3)c2c1)N1CCN(c2ccccn2)CC1 | 616 |
| Cc1cc(C)cc(S(=O)(=O)N2CCC(C(=O)NCc3csc(-c4ccccc4)n3)CC2)c1 | 990 |
| CCOC(=O)c1c(C)[nH]c(C(=O)N2CCCC(C(=O)NCCN3CCOCC3)C2)c1C (centres undefined) | 593 |
| COc1ccc(CCc2nc3nccc(-c4ccccn4)n3n2)cc1OC | 752 |
| COc1ccc(N2CC(c3noc(-c4ccc5c(c4)OCO5)n3)CC2=O)cc1 (centres undefined) | 874 |
| CCCn1ccc2sc(C)c(C(=O)NCCN3CCCCC3CC)c2c1=O (centres undefined) | 673 |
| O=C(NCCN1CCN(C(=O)CSc2nc3ccccc3s2)CC1)c1cccs1 | 577 |
| CC12CCC3C(CC=C4CC(O)CCC43C)C1C/C(=C\N1CCCC1)C2=O (centres undefined) | 943 |

| Structure (SMILES) | RP-LC retention time [s] |
| --- | --- |
| CN1C(=O)Cc2cc(S(=O)(=O)NCc3ccc4c(c3)CCN4C(=O)c3ccc(Cl)cc3)ccc21 | 867 |
| CN1CCC(N2CCN(C(=O)C3CCc4sc(C(=O)N5CCCC5)cc4C3)CC2)CC1 (centres undefined) | 558 |
| CCc1noc(-c2cnc3nc(C)ccc3c2Nc2ccccc2OC)n1 | 629 |
| CCc1nc2c(NC(=O)c3cc(F)cc(F)c3)cccn2n1 | 851 |
| COCCn1cc(CC(=O)NC2CCCCCC2)c2cccnc21 | 746 |
| COc1ccc(-c2nc3cc(C)ccn3c2NC(=O)CC(C)(C)C)cc1 | 681 |
| Cc1ccc(C(=O)NCc2ccc3c(c2)nnn3C)cc1 | 693 |
| CCn1nccc1C(=O)N1CCCC1c1ccc(C)cc1 (centres undefined) | 890 |
| O=C(CN1C(=O)CSc2ccc(C(=O)N3CCCCC3)cc21)NC1CCCCCC1 | 839 |
| COc1ccc(-c2nnc(CC(=O)N3CCCC3)o2)cc1 | 677 |
| Cc1ccc(Cn2c(=O)c3nn(C)cc3n3c(=O)n(Cc4ccc(F)cc4)nc23)cc1 | 947 |
| Cc1ccccc1C(=O)Nc1nc(-c2ccc3c(c2)N(C)C(=O)C(C)O3)cs1 (centres undefined) | 1010 |
| CCOC(=O)CC1(NC(=O)Nc2ccc3nc(C)cc(OC)c3c2)CCCCC1 | 689 |
| CCSc1nc2ccc(NS(=O)(=O)c3ccc(F)c(Cl)c3)cc2s1 | 1110 |
| Cn1cccc1CN(Cc1cccs1)C(=O)Cn1c(=O)oc2ccccc21 | 899 |
| Cc1ccc2c(c1)N(Cc1ccccc1)N=C(C(=O)N1CCOCC1)S2(=O)=O | 832 |
| Cc1cc(C)n(C(=O)c2ccc(Cl)cc2[N+](=O)[O-])n1 | 927 |
| O=C1CC(c2noc(-c3ccc(F)cc3)n2)CN1Cc1ccccc1 (centres undefined) | 931 |
| O=C(CN1C(=O)C2CCCCN2c2ccc(C(=O)N3CCCC3)cc21)Nc1ccc2c(c1)OCO2 (centres undefined) | 794 |

Other lines, results leading:

| RP-LC retention time [s] | Structure (SMILES) |
| --- | --- |
| 858 | CCc1ccc(S(=O)(=O)N2CC(F)(F)C[C@H]2c2nnc(C)o2)cc1 |
| 1020 | C=CCn1c(=O)c2ccccc2n(Cc2nc(-c3ccc(OC)cc3)no2)c1=O |
| 797 | Nc1sc(SCC(=O)Nc2ccc3c(c2)OCO3)nc1-c1ccccc1 |
| 838 | Cc1cccc(S(=O)(=O)N2CCC(N3CCN(Cc4ccccc4)C(=O)C3=O)CC2)c1 |
| 699 | CNC(=O)c1cc2n(n1)CCCN(Cc1ccc(C)cc1)C2=O |
| 705 | COc1ccc(OC)c(-c2cc(C(=O)N3CCC(C(=O)NCC(F)(F)F)CC3)[nH]n2)c1 |
| 715 | Cc1ccc(NC(=O)N2CC(n3cnnc3-c3ccccc3)C2)cc1C |
| 877 | COc1cccc(NC(=O)N2CCCC2c2nc(-c3cccc(C)c3)no2)c1 (centres undefined) |
| 949 | CCN(C(=O)c1ccc(C(C)(C)C)cc1)c1nc(-c2ccccc2)cs1 |
| 795 | O=C(Nc1cc(-c2ccccn2)no1)c1ccc(F)cc1 |
| 578 | COc1ccc(N2CCN(C(=O)c3ccc(=O)n(CCN4CCOCC4)c3)CC2)cc1 |
| 1240 | CCOC(=O)c1cc(C2CC2)nc2c1c(=O)n(Cc1ccccc1C)c(=O)n2C |
| 649 | CCC(C(=O)N1CCN(c2cc(-c3ccccc3)ncn2)CC1)c1ccccc1 (centres undefined) |
| 940 | Cc1nn(-c2ccc(-c3noc(C4CC4)n3)cc2)cc1C(=O)NC1CCCC1 |
| 601 | CC(=O)N1c2ccc(S(=O)(=O)N3CCCCC3)cc2CC1C(=O)NCCN(C)C (centres undefined) |
| 960 | Cn1c(=O)c(N2CCCC(C(=O)NCCc3c[nH]c4ccc(Cl)cc34)C2)nc2ccccc21 (centres undefined) |
| 1210 | COc1ccc(-n2/c(=N/C(=S)N(C)C)ss/c2=N\C(=S)N(C)C)cc1 |
| 713 | COc1ccccc1CNC(=O)CSc1ccc(-c2ccccn2)nn1 |
| 610 | CCN(CC)CCNc1ccc2nc(C)n3c4ccc(OC)cc4c(=O)c1c23 |
| 826 | CCN1C(=O)c2cccnc2Sc2cc(C(=O)NC3CCCCC3)ccc21 |
| 692 | Cn1cc(-c2cc3n(n2)CCC(=O)N3CCCC(=O)N2CCOCC2)c2ccccc21 |
| 715 | CN(CCc1ccc(Cl)c(Cl)c1)CC(O)COc1ccc(NS(C)(=O)=O)cc1 (centres undefined) |
| 822 | O=C(O)c1cn(Cc2cccc(F)c2)c(=O)c2ccccc12 |
| 969 | Cc1cc(C)cc(NC(=O)Cc2ccc(OC(C)(C)C(=O)O)cc2)c1 |
| 610 | COc1ccc(CC(=O)Nc2cccc(-c3cn4cccnc4n3)c2)cc1 |
| 907 | O=C(NCC(O)C1CCCCC1)C(c1ccccc1)c1ccccc1 (centres undefined) |
| 858 | O=C(Nc1ccc2c(c1)OCO2)c1c(O)c2ccccc2n(-c2ccccc2)c1=O |
| 674 | CCn1cnc(S(=O)(=O)N2CCC(C(=O)NCc3ccc(OC)cc3)CC2)c1 |
| 807 | COc1ccc(-c2nc(Nc3ccccn3)sc2C)cc1 |
| 961 | COC(=O)c1ccc(NC(=O)c2cnc(-c3ccc(C)cc3)nc2-c2ccncc2)cc1 |
